In patent US20080269342A1, “Pleuromutilin Derivatives and Its Use” (priority 2005, published 2008):

What was measured:
[1] = system: representative Gram-positive and Gram-negative pathogens; experiment: in vivo activity against representative pathogens; settings: pathogens associated with respiratory tract and skin and skin structure infections, including isolates resistant to existing classes of antimicrobials
S. aureus = experiment: in vitro antibacterial activity; type: cell-based
C. pneumoniae = experiment: in vitro activity against atypical pathogens; type: cell-based; settings: atypical pathogen
[2] = system: representative Gram-positive and Gram-negative pathogens; experiment: in vitro activity against representative pathogens; type: cell-based; settings: pathogens associated with respiratory tract and skin and skin structure infections, including isolates resistant to existing classes of antimicrobials
L. pneumophila = type: cell-based; settings: atypical pathogen
S. pyogenes = experiment: in vitro antibacterial activity; type: cell-based
anaerobic organisms = experiment: in vitro activity against anaerobic organisms; type: cell-based
H. influenzae = experiment: in vitro antibacterial activity; type: cell-based; settings: primary respiratory pathogen
M. pneumoniae = experiment: in vitro activity against atypical pathogens; type: cell-based; settings: atypical pathogen
F. tularensis = type: cell-based; settings: biothreat organism
N. gonorrhoeae = experiment: in vitro activity against Neisserria sp.; type: cell-based; settings: both ciprofloxacin susceptible and resistant
M. catarrhalis = experiment: in vitro antibacterial activity; type: cell-based; settings: primary respiratory pathogen
S. pneumoniae = experiment: in vitro antibacterial activity; type: cell-based; settings: primary respiratory pathogen
N. meningitidis = experiment: in vitro activity against Neisserria sp.; type: cell-based
[3] = system: isolates carrying resistance determinants to other antibiotics; experiment: in vitro activity against resistant isolates of respiratory pathogens; type: cell-based; settings: penicillin-, macrolide-, methicillin- or levofloxacin-resistant phenotypes
[4] = primary respiratory pathogen, primary pathogen of skin and skin structure infections

C=C[C@]1(C)C[C@@H](OC(=O)NC(=O)O[C@H]2C[C@H](N)C2)[C@]2(C)[C@H](C)CC[C@]3(CCC(=O)[C@H]32)[C@@H](C)[C@@H]1O [Compound I, trans-3-aminocyclobutyl (1S,2R,3S,4S,6R,7R,8R,14R)-4-ethenyl-3-hydroxy-2,4,7,14-tetramethyl-9-oxotricyclo[5.4.3.01,8]tetradec-6-yl imidodicarbonate]
retained: activity against isolates carrying resistance determinants to other antibiotics (S. aureus; S. aureus isolates, penicillin-, macrolide-, methicillin- or levofloxacin-resistant phenotypes) | activity against isolates carrying resistance determinants to other antibiotics (S. pyogenes; S. pyogenes isolates, penicillin-, macrolide-, methicillin- or levofloxacin-resistant phenotypes)
good in vitro activity: in vitro activity (C. pneumoniae) | in vitro activity (L. pneumophila) | in vitro activity (anaerobic organisms) | in vitro activity (M. pneumoniae) | in vitro activity (F. tularensis) | in vitro activity (N. gonorrhoeae) | in vitro activity (N. meningitidis)
good in vitro antibacterial activity: in vitro antibacterial activity (S. aureus; [4]) | in vitro antibacterial activity (S. pyogenes; [4]) | in vitro antibacterial activity (H. influenzae) | in vitro antibacterial activity (M. catarrhalis) | in vitro antibacterial activity (S. pneumoniae)
activity: activity against isolates carrying resistance determinants to other antibiotics [3]
good: in vivo activity [1] | in vitro activity [2]
